Laboratory results from patent publication US11767330B2, “Citrate salt, pharmaceutical compositions, and methods of making and using the same” (Foghorn Therapeutics Inc., priority 2021, dated 2023).
“Also recorded” adds a separate entry of the source.

Columns and labels:
[1] = Solubility / precipitation of IV formulations on pH adjustment; assay type: physicochemical; settings: pH lowered with hydrochloric acid solution
Description: Summary of Experiments. […] The pH of the compounding solution would later be adjusted by sodium hydroxide solution to the target pH. […] Only samples containing 20% SBECD (samples S-1.1 and S-2.1) were fully soluble at the desired pH.
Sample Preparation. To a 20 mL scintillation vial was added 60 mg of the racemate of the free base of the compound of Formula I and a magnetic stir bar. 3 mL of formulation solution (either 0%, 10% or 20% w/w SBECD in H2O) was added. The pH of the mixture was adjusted to approximately pH 3 by the addition of 1N HCl. Upon full dissolution (with magnetic stirring, sonication if necessary), the IV formulation was adjusted to the final pH by the addition of 1N NaOH solution. The IV formulation was filtered through a syringe filter, separated into 3 samples of approximately equal volume, and the samples were transferred to a stability chamber at 2-5° C., 25° C., or 40° C. At the specified time point the sample was removed from the stability chamber, an aliquot of the IV formulation was removed and diluted to 0.5 mg/mL with H2O for HPLC analysis.
As noted above, significant precipitation of compound D1 occurred upon adjusting the IV formulation to the final pH level of 5 or 6 for IV formulations containing <20% SBECD. […] IV formulations were filtered prior to conducting the stability studies.

[2] = tested on: non-synovial control cancer cell lines (RD, HCT116, and Calu6); assay: Growth of non-synovial control cancer cell lines, crystal violet day 14 (Example 3); assay type: cell-based; settings: daily treatment
Description: (§1) Procedure: Cells were seeded into 6-well or 12-well plates and were treated daily with a BRD9 degrader (Compound 1), a bromo-domain BRD9 binder (Compound 2), E3 ligase binder (lenalidomide), DMSO, or staurosporin (positive control for cell killing), at indicated concentrations. The number of cells was optimized for each cell line. Growth media was refreshed every 5 days. By day 14, medium was removed, cells were washed with PBS, and stained using 500 μL of 0.005% (w/v) crystal violet solution in 25% (v/v) methanol for at least 1 hour at room temperature. Subsequently plates were scanned on an Odyssey CLx Imaging system.

[3] = tested on: synovial sarcoma cell lines (SYO1, Yamato, HS-SY-II, and ASKA); assay: Growth of synovial sarcoma cell lines, IncuCyte confluency / crystal violet / colony imaging (Example 2); assay type: cell-based; settings: FIGS. 4, 5, 6
Description: (§2) Cells were treated with DMSO or the BRD9 degrader, Compound 1, at indicated concentrations, and proliferation was monitored from day 7 to day 14 by measuring confluency overtime using an IncuCyte live cell analysis system (FIG. 4). Growth medium and compounds were refreshed every 3-4 days.
(§3) Cells were seeded into 12-well plates and treated with DMSO, 1 μM BRD9 inhibitor, Compound 2 (also known as BI-7273, see Martin et al, J Med Chem. 59(10):4462-4475 (2016); see structure of compound 2 below), or 1 μM BRD9 degrader, Compound 1.
(§4) The number of cells was optimized for each cell line. Growth medium and compounds were refreshed every 3-5 days. SYO1, Yamato, A549, 293T and HS-SY-II cells were fixed and stained at day 11. ASKA cells were fixed and stained at day 23. Staining was done by incubation with crystal violet solution (0.5 g Crystal Violet, 27 ml 37% Formaldehyde, 100 mL 10×PBS, 10 mL Methanol, 863 dH20 to 1 L) for 30 min followed by 3× washes with water and drying the plates for at least 24 h at room temperature. Subsequently plates were scanned on an Odyssey CLx Imaging system (FIG. 5).
(§5) Cells were seeded into 96-well ultra-low cluster plate (Costar, #7007) in 200 μL complete media and treated at day 2 with DMSO, Staurosporin, or BRD9 degrader, Compound 1, at indicated doses (FIG. 2C). Media and compounds were changed every 5 d and cell colonies were imaged at day 14.

[4] = tested on: synovial sarcoma cell lines (SYO1, HS-SY-II, and ASKA); assay: Growth of synovial sarcoma cell lines, crystal violet day 14 (Example 3); assay type: cell-based; settings: daily treatment
Description: as §1

SYO1 cells [5] = assay: Apoptosis assay, Annexin V-FITC Apoptosis Detection Kit; assay type: cell-based, human; settings: SYO1, 8 days, compared to DMSO controls
Description: (§6) Procedure: SYO1 cells were treated for 8 or 13 days with DMSO, a BRD9 degrader (Compound 1) at 200 nM or 1 μM, or an E3 ligase binder (lenalidomide) at 200 nM. Compounds were refreshed every 5 days. Cell cycle analysis was performed using the Click-iT™ Plus EdU Flow Cytometry Assay (Invitrogen). The apoptosis assay was performed using the Annexin V-FITC Apoptosis Detection Kit (Sigma A9210). Assays were performed according to the manufacturer's protocol.

[6] = tested on: non-synovial control cancer cell lines (293T, A549, G401); assay: Growth of non-synovial control cancer cell lines (Example 2); assay type: cell-based
Description: as §2, §3, §4, §5

SYO1 cells [7] = assay: Cell cycle analysis, Click-iT Plus EdU Flow Cytometry Assay; assay type: cell-based, human; settings: SYO1, 200 nM or 1 μM, 8 or 13 days, compared to DMSO and lenalidomide
Description: as §6

[8] = target: T1, Nanoluciferase-BRD9 fusion protein (Homo sapiens, UniProt Q9H8M2); assay: SYO1 BRD9 NanoLuc degradation assay; assay type: cell-based; settings: 6 hours incubation; read-out: SYO1 BRD9-NanoLuc degradation IC50
T1 construct: fused on or other part: 3xFLAG tag and Nanoluciferase (NLuc) as reporter handle, fused to BRD9. b953 puts them at the N-terminus
T1 sequence (Q9H8M2 134-240 limits assumed): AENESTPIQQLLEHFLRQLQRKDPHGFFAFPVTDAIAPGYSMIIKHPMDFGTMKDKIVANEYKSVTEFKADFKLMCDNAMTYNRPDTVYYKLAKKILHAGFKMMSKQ
Description: Procedure: A stable SYO-1 cell line expressing 3×FLAG-NLuc-BRD9 was generated. On day 0 cells were seeded in 30 μL media into each well of 384-well cell culture plates. The seeding density was 8000 cells/well. On day 1, cells were treated with 30 nL DMSO or 30 nL of 3-fold serially DMSO-diluted compounds (10 points in duplicates with 1 μM as final top dose). Subsequently plates were incubated for 6 hours in a standard tissue culture incubator and equilibrated at room temperature for 15 minutes. Nanoluciferase activity was measured by adding 15 μL of freshly prepared Nano-Glo Luciferase Assay Reagent (Promega N1130), shaking the plates for 10 minutes and reading the bioluminescence using an EnVision reader.
Results: The Inhibition % was calculated using the following formula: % Inhibition=100×(LumHC−LumSample)/(LumHC−LumLC). DMSO treated cells are employed as High Control (HC) and 1 μM of a known BRD9 degrader standard treated cells are employed as Low Control (LC).

**Q.** For `COc1cc(-c2cn(C)c(=O)c3cnc(N4CCC4)cc23)cc(OC)c1CN1CCC(CN2CCC3(CC2)CN(c2ccc4c(c2)C(=O)N(C2CCC(=O)NC2=O)C4)C3)CC1` (racemic) [racemate of the free base of the compound of Formula I], which “dissolution at pH 3” value [1] is on record?
**A.** The value was “complete dissolution”.

**Q.** Which “growth of non-synovial control cancer cell lines” value [2] does the source give for `COc1cc(-c2cn(C)c(=O)c3cnccc23)cc(OC)c1CN(C)CC(=O)NCCOCCOCCNc1cccc2c1C(=O)N(C1CCC(=O)NC1=O)C2=O` (centres unmarked) [Compound 1] here?
**A.** The value was “did not result in inhibition of the growth”.

**Q.** And the “growth of synovial sarcoma cell lines” value [3]?
**A.** The value was “inhibition of the growth of the cells”.

**Q.** And the “growth of synovial sarcoma cell lines” value [4]?
**A.** The value was “inhibition of the growth of the cells; also recorded: most significant growth inhibition in all synovial cell lines”.

**Q.** What about the “early- and late-apoptotic cells” value (SYO1 cells [5]) of the same molecule?
**A.** The value was “increased numbers of early- and late-apoptotic cells”.

**Q.** And the “growth of non-synovial control cancer cell lines” value [6]?
**A.** Its value is “does not result in inhibition of the growth”.

**Q.** And the “cells in the S-phase of the cell cycle” value (SYO1 cells [7])?
**A.** Its value is “reduced numbers of cells in the S-phase of the cell cycle”.

**Q.** Which DC50 [8] does the source give for `[2H]C([2H])([2H])Oc1cc(-c2cn(C)c(=O)c3cnc(N4CCC4)cc23)cc(OC([2H])([2H])[2H])c1CN1CCC(CN2CCC3(CC2)CN(c2ccc4c(c2)C(=O)N(C2CCC(=O)NC2=O)C4)C3)CC1` (centres unmarked) [Compound D2] here?
**A.** Its DC50 is 0.18 nM.
